These results are taken from BigSolDB 2.1.

The conditions of the data set: in n-octanol.

As for `COc1ccccc1-n1c(=S)sc2c(=O)n(CC(=O)NCC(O)(Cn3cncn3)c3ccc(F)cc3F)cnc21` (stereo not given), the solubility (mole fraction) reads like this: (293.15 K) 0.00182; (298.15 K) 0.00212; (303.15 K) 0.00253; (308.15 K) 0.00297; (313.15 K) 0.00348.
In turn, `O=C(Cn1cnc2c(sc(=S)n2-c2ccc(Cl)cc2)c1=O)NCC(O)(Cn1cncn1)c1ccc(F)cc1F` (stereo not given) registered a solubility (mole fraction) (293.15 K) of 0.000548; a solubility (mole fraction) (298.15 K) of 0.000617; a solubility (mole fraction) (303.15 K) of 0.000699; a solubility (mole fraction) (308.15 K) of 0.000773; a solubility (mole fraction) (313.15 K) of 0.000861.
For `O=C(Cn1cnc2c(sc(=S)n2-c2ccc(F)cc2)c1=O)NCC(O)(Cn1cncn1)c1ccc(F)cc1F` (stereo not given), the solubility (mole fraction) reads like this: (293.15 K) 0.000335; (298.15 K) 0.000382; (303.15 K) 0.000439; (308.15 K) 0.000495; (313.15 K) 0.000563.
On to `Cc1ccc(-n2c(=S)sc3c(=O)n(CC(=O)NCC(O)(Cn4cncn4)c4ccc(F)cc4F)cnc32)cc1` (stereo not given), for which the solubility (mole fraction) runs as follows: (293.15 K) 0.000299; (298.15 K) 0.000368; (303.15 K) 0.000444; (308.15 K) 0.000531; (313.15 K) 0.000638.

As usually defined, the solubility (mole fraction) is solubility expressed as the solute's share of all molecules.
